Several values for one entry are separate records, joined by “and”; a condition that tells them apart may be missing. Equal values may be shown once.
Experiments:
Format in all cases: in vivo
[1] = test system: transgenic tobacco overexpressing Arabidopsis SDPS F240L gene and wild-type tobacco; experiment: Herbicide damage of transgenic tobacco sprayed with 75 g/ha Aclonifen or 25 g/ha herbicide Z; conditions: 7 days post treatment; for average herbicide damage score: 75 g/ha
Experimental: A further set of transgenic tobacco overexpressing the Arabidopsis SDPS F240L gene (SEQ ID NO.3) were created as described above. These plants were sprayed with 75 g/ha Aclonifen or 25 g/ha herbicide Z. The plants were assessed for herbicide damage at 7 days post treatment and compared to wild-type tobacco plants.
Numerous transgenic tobacco events expressing the Arabidopsis SDPS2 F240L gene (SEQ ID NO.3) show no damage from the herbicide treatment in contrast to the damage seen on the control plants. The average herbicide damage scores for the transgenic tobacco population versus the control wild-type plants are shown in table 6.

[2] = test system: transgenic tobacco expressing SDPS genes and wild-type Samsun tobacco; experiment: Herbicide tolerance of transgenic tobacco sprayed with 1000 g/ha Herbicide Compound 1, visual damage score; conditions: for Average Damage (%): 1000 g/ha spray, average across population
Source text: Populations of transgenic tobacco comprising 20-30 transgenic events per plant transformation constructs were generated as described in example 4. These lines were clonally propagated and 1 clone per event was sprayed with 1000 g/ha of Herbicide Compound 1. Herbicidal damage was visually assessed across the population and a herbicide damage score given at 7 and 14 days. […] indicates no visible damage or stunting whereas a score of 100 indicates a complete death of the plant.
The results in FIG. 3 show the damage scores for 4 populations of plants expressing either Arabidopsis SDPS2 gene (SEQ ID NO.2), the Arabidopsis SDPS2 F240L mutated gene (SEQ ID NO.3). the Chlorella fusca SDPS gene (SEQ ID NO. 10) or the Chlorella fusca SDPS F227L mutated gene (SEQ ID NO.11). A control population of wild-type Samsun tobacco was also assessed for herbicide damage. […] The Arabidopsis gene (SEQ ID NO.2) performs better than the Chlorella wild-type gene in terms of herbicide tolerance and this tolerance is again improved by the addition of the F240L mutation (SEQ ID NO.3).

[3] = test system: Nicotiana tabacum Samsun wild type and transgenic lines (plantlets); experiment: Tolerance of transgenic tobacco T1 lines in liquid culture, bleaching damage score; conditions: after 7 days
Experimental: Nicotiana tabacum Samsun wild type and transgenic lines were sterilized by placing in 30 ml Universals containing approximately 15 ml freshly made 2% Virkon and rotated on a roller for 15 mins. The Virkon was pipetted off using an extended fine tip mini pastette and the seed washed 4 times with 1% PPM (Plant Preservative Mixture, P820, 250 ml. Apollo Scientific Ltd.)
Seed was germinated on 90 mm Petri dishes containing 1/3 MS+0.8% agarose (SPI, Duchefa #DU 0463). pH5.7 (for WT) and 1/3 MS+0.8% agarose+100 ug/ml kanamycin (for the transgenic). Approximately 100 seed of each was spread on to each Petri dish. NB the transgenic seed is not homozygous therefore was plated on Kan to select. (MS=Murashige & Skoog MS Medium, #M0221, Melford Labs).
Plates were placed in a clear plastic “incubating box” (lids under plate) and incubated in a controlled environment room with the following conditions: • Temperature: Day 25° C./Night 25° C. • Light settings: Photo period 16 hours, Light level ˜50 μmol/m^2/s Dose Response Test:
7 day old tobacco plantlets (3 plantlets per well) were transferred aseptically to 24 well plates (cell-culture cluster flat bottom with lid) (Corning Costar #3524) containing 2 ml % MS+30 mM sucrose (Fisher #10638403), pH5.7 per well. Herbicide 2 was two-fold serially diluted in DMSO starting at 10 ppm and added to the media. DMSO only was added to the zero compound control wells. NB.
Plates were placed in clear plastic “Incubating boxes” (lid under plate) and incubated for 2 weeks in a controlled environment room with the following conditions: • Temperature: Day 24° C./Night 18° C. • Light settings: Photo period 16 hours, Light level 600 μmol/m^2/s. Assessment:
Plantlets were assessed visually for bleaching symptomology after 7 days and a damage score given for each well.

Structure (SMILES): Nc1c([N+](=O)[O-])ccc(Oc2ccccc2)c1Cl [Aclonifen]
- average herbicide damage score ([1]; Wild type tobacco): 40
- average herbicide damage score ([1]; pBin AraSDPS2 F240L transgenic tobacco): 16.17
- herbicide damage score ([1]; wild type tobacco, individual control plants, Aclonifen 75 g/ha spray): 35 (4×) and 30 (2×) and 60 (2×)

Structure (SMILES): CCOC(=O)C(CC)N(c1c(C)cccc1C)S(=O)(=O)CCl (stereo not shown) [Herbicide Compound Ex. 1]
- Average Damage (%) ([2]; WT Control tobacco): 23.125%
- Average Damage (%) ([2]; tobacco with construct pBin TMV AraSDPS2): 13.25%
- Average Damage (%) ([2]; tobacco with construct pBin TMV AraSDPS2_F240L): 5%
- Average Damage (%) ([2]; tobacco with construct pBin TMV CfSDPS): 25%
- Average Damage (%) ([2]; tobacco with construct pBin TMV CfSDPS_F227L): 10.05%
- tolerance to herbicide (in words) ([2]; tobacco expressing Chlorella fusca SDPS F227L (SEQ ID NO.11)): does display increased tolerance
- tolerance to herbicide (in words) ([2]; tobacco overexpressing Chlorella fusca SDPS (SEQ ID NO. 10)): does not increase tolerance

Structure (SMILES): CCOC(=O)C(C)N(c1c(C)cccc1C)S(=O)(=O)CC (stereo not shown) [Herbicide Compound Ex. 2]
- bleaching damage score (two replicate plates a/b) ([3]; 0.75 ppm, WT (Samsun)): 0/0
- bleaching damage score (two replicate plates a/b) ([3]; 0.75 ppm, tobacco line ARA SDPS1): 0/0
- bleaching damage score (two replicate plates a/b) ([3]; 0.75 ppm, tobacco line ARA SDPS F240V 1): 0/0
- bleaching damage score (two replicate plates a/b) ([3]; 1.25 ppm, WT (Samsun)): 0/0
- bleaching damage score (two replicate plates a/b) ([3]; 1.25 ppm, tobacco line ARA SDPS1): 0/0
- bleaching damage score (two replicate plates a/b) ([3]; 1.25 ppm, tobacco line ARA SDPS F240V 1): 0/0
- bleaching damage score (two replicate plates a/b) ([3]; 2.5 ppm, WT (Samsun), listed as Herbicide 2): 25/25 and 50/50
- bleaching damage score (two replicate plates a/b) ([3]; 2.5 ppm, tobacco line ARA SDPS1, listed as Herbicide 2): 50/50 and 50/25 and 25/25
- bleaching damage score (two replicate plates a/b) ([3]; 2.5 ppm, tobacco line ARA SDPS F240V 1): 25/25
- bleaching damage score (two replicate plates a/b) ([3]; 5 ppm, WT (Samsun), listed as Herbicide 2): 90/100 and 95/90
- bleaching damage score (two replicate plates a/b) ([3]; 5 ppm, tobacco line ARA SDPS1, listed as Herbicide 2): 100/100 and 90/80 and 80/95
- bleaching damage score (two replicate plates a/b) ([3]; 5 ppm, tobacco line ARA SDPS F240V 1, listed as Herbicide 2): 50/50 (2×) and 50/25
- bleaching damage score (two replicate plates a/b) ([3]; 10 ppm, WT (Samsun), listed as Herbicide 2): 100/100 and 95/100
- bleaching damage score (two replicate plates a/b) ([3]; 10 ppm, tobacco line ARA SDPS1): 100/100
- bleaching damage score (two replicate plates a/b) ([3]; 10 ppm, tobacco line ARA SDPS F240V 1, listed as Herbicide 2): 90/100 (2×) and 100/100
